The results in this text go back to patent US8937091B2 (Japan Science and Technology Agency, priority 2009, dated 2015).

The subject of experiment [1] is SOCE (store operated calcium entry) in CHO cells. In words: Assay of SOCE (store operated calcium entry)-inhibiting action. Format: cell-based, Chinese hamster. Particulars: Cricetulus griseus, CHO, CHO cells, thapsigargin, read-out: SOCE level (percentage of inhibition); for inhibition at 10 µM: test compound 10 μmol; for inhibition at 30 µM: test compound 30 μmol; for inhibition at 100 µM: test compound 100 μmol. In short, it runs like this: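 CHO cells in calcium-free BSS received compound, then 1 μM thapsigargin 2 min later to deplete stores; after 9 min, 2 mM calcium chloride (final) added. Percent inhibition of the rise in intracellular calcium determined at various compound concentrations.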

Experiment [2] has as its system IICR (IP3 induced calcium release) in CHO cells. Put plainly: Assay of IICR (IP3 induced calcium release)-inhibiting action. Format: cell-based, Chinese hamster. Particulars: Cricetulus griseus, CHO, CHO cells, 10 μM ATP, read-out: IICR level (percentage of inhibition); for inhibition at 10 µM: test compound 10 μmol; for inhibition at 30 µM: test compound 30 μmol; for inhibition at 100 µM: test compound 100 μmol. In short, it runs like this: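 CHO cell medium replaced with calcium-containing BSS; compound added 1 min later, then 10 μM ATP after a further 2 min. Percent inhibition of the ATP-evoked rise in intracellular calcium determined at each compound concentration.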

Take `O=C(CCN(CCO)Cc1ccccc1)c1ccncc1` [Example 135, 2-(N-benzylhydroxyethyl)aminoethyl-4-pyridylketone]: in experiment [1], the inhibition (usually the percentage by which the read-out fell short of the control) at 10 µM stood at 0%, the inhibition at 30 µM came out at 0% and the inhibition at 100 µM stood at 0%. For the same molecule, in experiment [2], the inhibition at 10 µM is 20%, the inhibition at 30 µM amounted to 10% and the inhibition at 100 µM came to 0%.

For `CC(C)N(CCC(=O)c1ccccn1)Cc1ccccc1` [Example 73, 2-(N-isopropylbenzyl)aminoethyl-2-pyridylketone], in experiment [1], the inhibition at 10 µM turned out to be 0%, the inhibition at 30 µM amounted to 0% and the inhibition at 100 µM is 10%. In addition, in experiment [2], the inhibition at 10 µM is 70%, the inhibition at 30 µM was 100% and the inhibition at 100 µM was 90%.

Take `C=CC(=O)c1cccc2ccccc12` [Example 68, 1-acryloylnaphthalene]: in experiment [1], the inhibition at 10 µM came out at 0%, the inhibition at 30 µM turned out to be 10% and the inhibition at 100 µM was determined as 70%. Moreover, in experiment [2], the inhibition at 10 µM was 80%, the inhibition at 30 µM came to 90% and the inhibition at 100 µM is 95%.

As to `Cc1cc(C(=O)CCN(CCO)C(C)C)c(C)s1` [Example 230, 2-(N-2-hydroxyethylisopropyl)aminoethyl-2,5-dimethyl-3-thiophenylketone], in experiment [1], the inhibition at 10 µM came to 0%, the inhibition at 30 µM is 0% and the inhibition at 100 µM came to 0%. Besides, in experiment [2], the inhibition at 10 µM amounted to 0%, the inhibition at 30 µM turned out to be 0% and the inhibition at 100 µM was 20%.

`NCCCCN(CCCN)CCC(=O)c1ccc(Br)s1` [Example 344, 2-(N-4-aminobutyl-N-3-aminopropyl)aminoethyl-5-bromo-2-thienylketone]: in experiment [1], the inhibition at 10 µM is 0%, the inhibition at 30 µM stood at 2% and the inhibition at 100 µM is 6%. In experiment [2], the inhibition at 10 µM was 10%, the inhibition at 30 µM amounted to 40% and the inhibition at 100 µM worked out at 30%.

In the case of `CC(CN(CCO)C(C)C)C(=O)c1ccc(F)cc1` (stereo not shown) [Example 157, 1-methyl-2-(N-hydroxyethylisopropyl)aminoethyl-4-fluorophenylketone], in experiment [1], the inhibition at 10 µM was 0%, the inhibition at 30 µM stood at 0% and the inhibition at 100 µM came to 0%. In experiment [2], the inhibition at 10 µM is 0%, the inhibition at 30 µM was 0% and the inhibition at 100 µM stood at 0%.

In the case of `CC(C)N(CCC(=O)c1ccc(Cl)s1)Cc1ccccc1` [Example 266, 2-(N-benzylisopropyl)aminoethyl-5-chloro-2-thiophenylketone], in experiment [1], the inhibition at 10 µM is 0%, the inhibition at 30 µM came to 20% and the inhibition at 100 µM worked out at 40%. In addition, in experiment [2], the inhibition at 10 µM was 0%, the inhibition at 30 µM turned out to be 0% and the inhibition at 100 µM worked out at 70%.

As to `Cc1cc(C(=O)CCN(CCO)CCO)c(C)s1` [Example 229, 2-(N,N-bis-2-hydroxyethyl)aminoethyl-2,5-dimethyl-3-thiophenylketone], in experiment [1], the inhibition at 10 µM was found to be 0%, the inhibition at 30 µM amounted to 0% and the inhibition at 100 µM amounted to 0%. In addition, in experiment [2], the inhibition at 10 µM was determined as 0%, the inhibition at 30 µM turned out to be 0% and the inhibition at 100 µM amounted to 0%.

Turning to `CC(C)(C)N(CCC(=O)c1cc2ccccc2s1)Cc1ccccc1` [Example 285, 2-(N-t-butylbenzyl)aminoethyl-2-benzothienylketone], in experiment [1], the inhibition at 30 µM was 0% and the inhibition at 100 µM is 50%. For the same molecule, in experiment [2], the inhibition at 10 µM came out at 50%, the inhibition at 30 µM came to 80% and the inhibition at 100 µM is 60%.

As for `O=C(CCNc1ccccc1S)c1cccs1` [Example 128, 2-(2-mercaptophenyl)aminoethylthiophenylketone], in experiment [1], the inhibition at 10 µM stood at 0%, the inhibition at 30 µM was found to be 0% and the inhibition at 100 µM stood at 20%. For the same molecule, in experiment [2], the inhibition at 10 µM is 0%, the inhibition at 30 µM was 30% and the inhibition at 100 µM was 10%.

`O=C(CCNCCc1ccccc1)c1ccc(Br)s1` [Example 351, 2-phenethylaminoethyl-5-bromo-2-thienylketone]: in experiment [1], the inhibition at 10 µM was found to be 0%, the inhibition at 30 µM turned out to be 9% and the inhibition at 100 µM turned out to be 32%. Also, in experiment [2], the inhibition at 10 µM stood at 30%, the inhibition at 30 µM is 0% and the inhibition at 100 µM amounted to 0%.

As to `O=C(CCNCCN(CCO)CCC(=O)c1cnccn1)c1cnccn1` [Example 273, N,N-bis(2-pyrazoylethyl)-N-hydroxyethylethylenediamine], in experiment [1], the inhibition at 30 µM stood at 0% and the inhibition at 100 µM came to 10%. For the same molecule, in experiment [2], the inhibition at 10 µM was found to be 40%, the inhibition at 30 µM was 30% and the inhibition at 100 µM is 20%.

`C=CC(=O)c1ccco1` [Example 171, 2-furyl vinylketone]: in experiment [1], the inhibition at 10 µM was determined as 0%, the inhibition at 30 µM was 10% and the inhibition at 100 µM was 30%. Moreover, in experiment [2], the inhibition at 10 µM is 0%, the inhibition at 30 µM is 0% and the inhibition at 100 µM is 0%.

As for `O=C(CCN(CCO)CCO)c1nccs1` [Example 143, 2-(N,N-dihydroxyethyl)aminoethyl-2-thiazolylketone], in experiment [1], the inhibition at 10 µM worked out at 0%, the inhibition at 30 µM came out at 0% and the inhibition at 100 µM is 10%. Further, in experiment [2], the inhibition at 10 µM was determined as 0%, the inhibition at 30 µM was 50% and the inhibition at 100 µM turned out to be 90%.

Take `CCN(CCC(=O)c1cccnc1)Cc1ccccc1` [Example 144, 2-(N-benzylethyl)aminoethyl-3-pyridylketone]: in experiment [1], the inhibition at 10 µM amounted to 0%, the inhibition at 30 µM was determined as 0% and the inhibition at 100 µM amounted to 0%. Moreover, in experiment [2], the inhibition at 10 µM amounted to 30%, the inhibition at 30 µM is 40% and the inhibition at 100 µM turned out to be 50%.

Consider `O=C(CCN1CCCCC1)c1ccccn1` [Example 95, 2-piperidinoethyl-2-pyridylketone], for which, in experiment [1], the inhibition at 10 µM came out at 0%, the inhibition at 30 µM came to 0% and the inhibition at 100 µM is 0%. Also, in experiment [2], the inhibition at 10 µM was found to be 0%, the inhibition at 30 µM was found to be 10% and the inhibition at 100 µM worked out at 10%.

With `Cc1ccc(C(=O)CCN(CCO)C(C)(C)C)o1` [Example 240, 2-(N-2-hydroxyethyl-t-butyl)aminoethyl-5-methyl-2-furylketone], in experiment [1], the inhibition at 10 µM was found to be 0%, the inhibition at 30 µM is 0% and the inhibition at 100 µM stood at 0%. In experiment [2], the inhibition at 10 µM turned out to be 10%, the inhibition at 30 µM worked out at 30% and the inhibition at 100 µM came to 50%.

As to `CCc1nccnc1C(=O)CCN(Cc1ccccc1)C(C)C` [Example 186, 2-(N-isopropylbenzyl)aminoethyl-2-(3-ethyl)-pyrazylketone], in experiment [1], the inhibition at 10 µM stood at 0%, the inhibition at 30 µM was 0% and the inhibition at 100 µM was found to be 10%. In experiment [2], the inhibition at 10 µM came out at 70%, the inhibition at 30 µM was determined as 90% and the inhibition at 100 µM turned out to be 100%.

Regarding `O=C(CCN(Cc1ccccc1)Cc1ccccc1)c1ccc(Br)s1` [Example 325, 2-(N-dibenzyl)aminoethyl-5-bromo-2-thienylketone], in experiment [1], the inhibition at 10 µM turned out to be 0%, the inhibition at 30 µM turned out to be 20% and the inhibition at 100 µM came out at 40%. In experiment [2], the inhibition at 10 µM came out at 20%, the inhibition at 30 µM came to 20% and the inhibition at 100 µM was determined as 50%.

In the case of `CC(C)N(CCC(=O)c1cc(Cl)sc1Cl)Cc1ccccc1` [Example 202, 2-(N-isopropylbenzyl)aminomethyl-3-(2,5-dichlorothiophenyl)ketone], in experiment [1], the inhibition at 10 µM was determined as 0%, the inhibition at 30 µM is 20% and the inhibition at 100 µM worked out at 50%. Besides, in experiment [2], the inhibition at 10 µM was 50%, the inhibition at 30 µM worked out at 80% and the inhibition at 100 µM stood at 100%.

`CC(C)N(CCO)CCC(=O)n1ccnc1` [Example 199, 2-(N-isopropylhydroxyethyl)aminoethyl-1-imidazolylketone]: in experiment [1], the inhibition at 10 µM came to 0%, the inhibition at 30 µM was 0% and the inhibition at 100 µM was 0%. Also, in experiment [2], the inhibition at 10 µM was determined as 10%, the inhibition at 30 µM is 20% and the inhibition at 100 µM worked out at 0%.

Take `CCC(C)N(CCC(=O)c1ccc(I)s1)C(C)CC` (stereo not shown) [Example 411]: in experiment [1], the inhibition at 10 µM amounted to 20%, the inhibition at 30 µM worked out at 40% and the inhibition at 100 µM came to 50%. Also, in experiment [2], the inhibition at 10 µM came out at 76%, the inhibition at 30 µM is 80% and the inhibition at 100 µM amounted to 82%.

On to `Cc1ccc(C(=O)CCNCc2ccccc2)o1` [Example 152, 2-(N-benzyl)aminoethyl-5-methyl-2-furylketone], for which, in experiment [1], the inhibition at 10 µM was found to be 0%, the inhibition at 30 µM came out at 10% and the inhibition at 100 µM turned out to be 30%. Also, in experiment [2], the inhibition at 10 µM worked out at 20%, the inhibition at 30 µM was found to be 10% and the inhibition at 100 µM was determined as 30%.
